Consider one molecule from ChEMBL document CHEMBL5370649, “Novel Coumarin Derivatives Inhibit the Quorum Sensing System and Iron Homeostasis as Antibacterial Synergists against Pseudomonas aeruginosa” (J Med Chem, 2023).

Data set [1] has as its target T1, Transcriptional activator protein LasR (Pseudomonas aeruginosa (strain ATCC 15692 / PAO1 / 1C / PRS 101 / LMG12228)) (UniProt P25084).
T1 sequence (whole entry): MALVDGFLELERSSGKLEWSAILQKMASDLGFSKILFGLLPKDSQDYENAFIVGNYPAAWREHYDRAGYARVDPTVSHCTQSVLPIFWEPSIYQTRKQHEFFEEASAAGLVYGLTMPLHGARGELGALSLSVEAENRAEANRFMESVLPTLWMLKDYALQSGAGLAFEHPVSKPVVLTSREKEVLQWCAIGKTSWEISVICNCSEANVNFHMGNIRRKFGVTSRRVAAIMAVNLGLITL
Put plainly: Inhibition of LasR-mediated quorum sensing system in Pseudomonas aeruginosa PAO1 assessed as inhibition of elastase production at 1.25 to 20 uM incubated for 24 hrs using BODIPY-FL-labeled DQ elastin conjugate as substrate by fluorometric method. The conditions noted are these: dose 1.25-20 µM.

The test system of data set [2] is Pseudomonas aeruginosa. Put plainly: Downregulation of mexE expression in Pseudomonas aeruginosa PAO1 at 20 uM incubated for 24 hrs by RNA sequencing analysis. The data set is classed as functional.
The target of data set [3] is T2, Transcriptional regulator MvfR (Pseudomonas aeruginosa PA14) (UniProt A0A072ZLE6).
T2 sequence (whole entry): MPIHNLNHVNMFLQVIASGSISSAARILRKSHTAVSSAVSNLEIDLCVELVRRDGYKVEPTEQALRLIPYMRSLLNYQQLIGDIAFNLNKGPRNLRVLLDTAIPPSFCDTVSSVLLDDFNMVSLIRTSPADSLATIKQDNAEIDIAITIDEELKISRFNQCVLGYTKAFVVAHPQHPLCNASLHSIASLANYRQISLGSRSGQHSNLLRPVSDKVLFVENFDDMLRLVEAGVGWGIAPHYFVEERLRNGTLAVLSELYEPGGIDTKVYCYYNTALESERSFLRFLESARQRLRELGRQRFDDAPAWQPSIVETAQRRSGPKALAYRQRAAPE
Put plainly: Inhibition of PqsR-mediated quorum sensing system in Pseudomonas aeruginosa PAO1 assessed as inhibition of pyocyanin production at 1.25 to 20 uM incubated for 24 hrs by absorbance based assay. The conditions noted are these: dose 1.25-20 µM.

In data set [4] the test system is Pseudomonas aeruginosa. Put plainly: Upregulation of pchB expression in Pseudomonas aeruginosa PAO1 at 20 uM incubated for 24 hrs by RNA sequencing analysis. It is filed as functional.
Data set [5] relates to Pseudomonas aeruginosa. Put plainly: Synergistic antibacterial activity against Pseudomonas aeruginosa PAO1 infected in Balb/c mouse wound infection model assessed as healing degree of wound at 50 uM […],TOP QD for 3 days in presence of Ciprofloxacin. The data set is classed as functional, organism-based. Particulars: time 3.0 day.
The nature of data set [6]: Inhibition of quorum sensing system in Pseudomonas aeruginosa PAO1-rhlA-gfp assessed as inhibition of GFP fluorescence expression at 1.25 to 20 uM and measured for 12 hrs at 15 mins interval by fluorescence assay. Particulars: dose 1.25-20 µM.
The subject of data set [7] is Pseudomonas aeruginosa. Put plainly: Downregulation of pilD expression in Pseudomonas aeruginosa PAO1 at 20 uM incubated for 24 hrs by RNA sequencing analysis. The data set is classed as functional.
Data set [8] deals with Pseudomonas aeruginosa. As to the kind of experiment: Synergistic antibacterial activity against Pseudomonas aeruginosa PAO1 infected in Balb/c mouse wound infection model assessed as reduction in bacterial survival rate at wounded area at 50 uM,TOP QD for 3 days in presence of Ciprofloxacin by CFU assay. Particulars: time 3 day. The data set is classed as functional.
For the next data set, the system named is L02. Put plainly: Cytotoxicity against human L02 cells assessed as reduction in cell viability upto 50 uM incubated for 24 hrs by MTT assay. The data set is classed as toxicity, cell-based. Particulars: l02, 24 h. Background: Formazan colour is commonly taken as a measure of viable cells.
Data set [9] concerns Pseudomonas aeruginosa. Put plainly: Synergistic antibacterial activity against Pseudomonas aeruginosa PAO1 infected in Balb/c mouse wound infection model assessed as reduction in bacterial infection at 50 uM,TOP QD for 3 days in presence of Ciprofloxacin by CFU assay. It is filed as functional. The arrangement: scale not given: the % may be the effect or the level left. The conditions noted are these: time 3 day.

Data set [10] can be described thus: Inhibition of quorum sensing system in Pseudomonas aeruginosa PAO1-gfp assessed as inhibition of GFP fluorescence expression at 1.25 to 20 uM and measured for 12 hrs at 15 mins interval by fluorescence assay. The conditions noted are these: dose 1.25-20 µM.
Data set [11] relates to Pseudomonas aeruginosa. Put plainly: Antibiofilm activity against Pseudomonas aeruginosa PAO1 fpvA-overexpressing mutant assessed as inhibition of biofilm formation at 1.25 to 20 uM incubated for 24 hrs by crystal violet staining based absorbance assay. It is filed as functional, organism-based. The conditions noted are these: dose 1.25-20 µM.
Data set [12] concerns Pseudomonas aeruginosa. Put plainly: Antibacterial activity against Pseudomonas aeruginosa PAO1 in ABTGC medium assessed as bacterial growth inhibition incubated for 16 hrs. The data set is classed as functional.
The subject of data set [13] is Pseudomonas aeruginosa. As to the kind of experiment: Downregulation of phyllo expression in Pseudomonas aeruginosa PAO1 at 20 uM incubated for 24 hrs by RNA sequencing analysis. The data set is classed as functional.
Data set [14] has as its system Pseudomonas aeruginosa. Put plainly: Antibiofilm activity against in Pseudomonas aeruginosa PAO1 assessed as pilus formation at 5 to 40 uM incubated for 16 hrs by SEM analysis. The data set is classed as functional, organism-based. The conditions noted are these: dose 5-40 µM.
The subject of data set [15] is Pseudomonas aeruginosa. As to the kind of experiment: Antibiofilm activity against Pseudomonas aeruginosa PAO1 assessed as inhibition of biofilm formation at 0.5 to 10 uM incubated for 24 hrs by SYTO9 and PI staining based 3D fluorescence confocal microscopy imaging analysis. The conditions noted are these: dose 0.5-10 µM. The data set is classed as functional, organism-based.

The nature of data set [16]: Toxicity in Balb/c mouse wound infection model infected with Pseudomonas aeruginosa PAO1 assessed as morphological changes in liver at 50 uM,TOP for 3 days in Ciprofloxacin by H and E staining based analysis. The data set is classed as tissue-based. Particulars: in vivo, topical_or_ocular, 72 h, time 3 day.
The subject of data set [17] is Pseudomonas aeruginosa. Put plainly: Inhibition of iron homeostasis in Pseudomonas aeruginosa PAO1 in ABTGC medium assessed as increase in iron-free pyochelin production at 1.25 to 20 uM in presence of FeCl3 by fluorescence based microplate reader analysis. It is filed as functional, organism-based. The conditions noted are these: dose 1.25-20 µM.
Data set [18] can be described thus: Inhibition of quorum sensing system in Pseudomonas aeruginosa PAO1-pqsA-gfp assessed as inhibition of GFP fluorescence expression at 1.25 to 20 uM and measured for 12 hrs at 15 mins interval by fluorescence assay. Particulars: dose 1.25-20 µM.
The test system of the next data set is A549. As to the kind of experiment: Cytotoxicity against human A549 cells assessed as reduction in cell viability upto 50 uM incubated for 24 hrs by MTT assay. The data set is classed as toxicity, cell-based. The conditions noted are these: a549, 24 h.
The nature of data set [19]: Toxicity in Balb/c mouse wound infection model infected with Pseudomonas aeruginosa PAO1 assessed as morphological changes in spleen at 50 uM,TOP for 3 days in Tobramycin by H and E staining based analysis. It is filed as tissue-based. Particulars: in vivo, topical_or_ocular, 72 h, time 3 day.
The subject of data set [20] is Pseudomonas aeruginosa. As to the kind of experiment: Antibiofilm activity against Pseudomonas aeruginosa PAO1 pvds-defective mutant assessed as inhibition of biofilm formation at 1.25 to 20 uM incubated for 24 hrs by crystal violet staining based absorbance assay. It is filed as functional, organism-based. Particulars: dose 1.25-20 µM.
Data set [21] concerns Pseudomonas aeruginosa. Put plainly: Downregulation of rhl expression in Pseudomonas aeruginosa PAO1 at 20 uM incubated for 24 hrs by RNA sequencing analysis. It is filed as functional.

Molecules are shown by their SMILES. Activity calls are given as the source filed them. A value given as a limit tells only on which side of the number the result lay.

Broadly, the MIC is the smallest concentration in the dilution series that meets the test's criterion for growth inhibition. Regarding `Cc1ccc2oc(=O)cc(OCCCCCCC(=O)NO)c2c1`, the inhibition result in data set [1], in data set [3] and in data set [18] was “Dose-Dependent Effect” each time. The outcome with Pseudomonas aeruginosa [2], with Pseudomonas aeruginosa [4], with Pseudomonas aeruginosa [5], in the data set on Pseudomonas aeruginosa [7], with Pseudomonas aeruginosa [13] and in the data set on Pseudomonas aeruginosa [21] was Active. In addition, the inhibition entry (in [6]; in data set [10]; in the data set on Pseudomonas aeruginosa [11]; with Pseudomonas aeruginosa [20]) was “inactive” each time. Also, the Activity with Pseudomonas aeruginosa [8] was 3.19%; in the data set with L02, “Non-Toxic”; in the data set with Pseudomonas aeruginosa [9], 100%; with Pseudomonas aeruginosa [14] it was “Dose-Dependent Effect”; in data set [16] it was “Non-Toxic”; with A549, “Non-Toxic”. Further, the Activity result in data set [19] is listed as “Non-Toxic”. Further, the MIC in the data set on Pseudomonas aeruginosa [12] is > 256 µM. Also, the inhibition result in the data set on Pseudomonas aeruginosa [15] and with Pseudomonas aeruginosa [17] was “Active” in each case.
